For series [1] the following is noted: analogous water-soluble acids of the prior-art strong acids; cited from earlier work.
Series [2] is described as follows: pH of 1N NaCl solution after contact with the organic acid (indirect acid strength test). As to conditions: 1 mol acid at 0.2 molar or higher in organic solvent contacted with equivalent NaCl in 1N aqueous solution.
Text: The stronger the organic acid, the more the reaction moves in the right direction and the lower is the pH of the formed aqueous solution.

Consider `O=C(O)c1c(Cl)ccc(Cl)c1C(=O)O` [3,6-dichlorophtalic], for which the pKa in series [1] is on record as 1.46.
Turning to `CCCCCCCCCCCC(=O)O` [Lauric, lauric acid], the “pH of the sodium chloride solution” value in series [2] is greater than 5.

Values taken from patent publication US20110028710A1, “PROCESS FOR THE RECOVERY OF HCL FROM A DILUTE SOLUTION THEREOF AND EXTRACTANT COMPOSITION FOR USE THEREIN” (HCL CLEANTECH LTD., priority 2008, published 2011).
